Test results published in patent US8367361B2, “Methods using O6-alkylguanine-DNA alkytransferase” (Ecole Polytechnique Federale de Lausanne, priority 2001, dated 2013).

Experiments:
[1] = target: T1, endogenous hAGT in human cells (HEK 293) (Homo sapiens, UniProt P16455); experiment: Fluorescence labelling of endogenous hAGT in HEK 293 cells, confocal microscopy; type: cell-based; conditions: HEK 293 cells preincubated overnight with 1 μM O6-benzylguanine before BG-AcFc
T1 construct: endogenous hAGT in human cells (HEK 293); endogenous in cells; host or cells: HEK 293
T1 sequence (P16455 1-207): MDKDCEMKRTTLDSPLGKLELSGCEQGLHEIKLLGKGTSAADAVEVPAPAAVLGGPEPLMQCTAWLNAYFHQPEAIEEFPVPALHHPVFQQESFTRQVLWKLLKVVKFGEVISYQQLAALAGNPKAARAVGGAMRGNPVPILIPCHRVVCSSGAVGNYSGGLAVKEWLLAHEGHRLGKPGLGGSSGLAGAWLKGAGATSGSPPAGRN
Description: (C) is an overlay of the images obtained from fluorescence and light microscopy.
Images were then taken with a confocal fluorescence microscope (Ext. 492 nm; Em. 510 nm). […] This should inactivate the endogenous hAGT and therefore prevent the accumulation of the fluorescence in the nucleus. […] The substrate's emission wavelength is 519 nm (excitation at 237, 323 and 490 nm respectively).

[2] = target: T2, hAGT (Homo sapiens, UniProt P16455); conditions: cited from earlier work
T2 sequence (P16455 1-207): T1 sequence (P16455 1-207)

## Nc1nc(OCc2ccccc2)c2nc[nH]c2n1 [O^6-benzylguanine]
[1]
  accumulation of BG-AcFc fluorescence in the nucleus after preincubation: no accumulation of fluorescence in the nucleus was observed
[2]
  second order rate constant of reaction with hAGT: approximately 10^3 sec^−1 M^−1
